Measured values published in patent publication US10894785B2, “Piperidine derivatives for use in the treatment of pancreatic cancer” (CENTRE HOSPITALIER UNIVERSITAIRE VAUDOIS CHUV, priority 2016, dated 2021).

How the values were obtained:
[1] = test system: pancreatic ductal adenocarcinoma (Panc-1); experiment: Anti-tumor activity on Panc-1: cell viability by sulforhodamine or MTT assay; format: cell-based; settings: Homo sapiens, Panc-1 cells, 96 hours treatment, 0.001-1000 nM
Method: The compounds according to the present invention were evaluated for their anti-tumor activities on pancreatic ductal adenocarcinoma (Panc-1). To this end, 0.5×10^6 human malignant cells were treated with various concentrations (0.001-1000 nM) for 96 hours of FK866 or the compounds according to the present invention. Subsequently cell viability was determined using either sulforhodamine assays as described in Caffa I, et al. (Oncotarget. 2015 May 20; 6(14):11820-32) or MTT assays. Sulforhodamine B is a dye able that binds to cellular proteins. […] For MTT assays, human malignant cells were plated in triplicate on 96-well plates and treated as mentioned above. After 96 hours of incubation, 15 μL of dye solution was added to each well and cells were incubated for an additional 4 hours. Stop solution (100 μL/well) was added for 1 hour and the absorbance was read at 570 nm on a spectrophotometer. To confirm whether the cytotoxicity exerted by these compounds involves programmed cell death, drug-induced cell death was evaluated using annexin V and 7AAD double staining as described by the manufacturer for assessing apoptosis or autophagic-cell death using a Beckman Coulter Cytomics Gallios flow cytometer. Dead cells were identified as annexinV+ and/or 7AAD+. GraphPad Prism version 7.00 (GraphPad Software, San Diego, Calif.) was used for IC50 calculation.

[2] = Pharmacokinetics after intraperitoneal administration in female SCID mice (plasma, LC-MS/MS, non compartmental analysis); format: in vivo; settings: 20 mg/kg IP; for CL: CL calculated as dose/AUC; for Percentage of extrapolated AUC from T6 h to infinity / T1/2α / T1/2β / half-lives in the second phase (6 h→24 h) compared with FK866 / Cmax / Tmax / AUC(0-inf) / AUC(0-t): plasma; for Percentage of extrapolated AUC from T6 h to infinity: relative to AUC0-inf; for T1/2α: t½α (0 -> 6 h); for T1/2β: t½β (6 -> 24 h); for half-lives in the second phase (6 h→24 h) compared with FK866: versus FK866; for Cmax / Tmax / AUC(0-inf) / AUC(0-t): mouse; for AUC(0-inf): log-trapezoidal rule, extrapolated to infinity; for AUC(0-t): read-out: AUC0-8 h
Method: The pharmacokinetics parameters of FK866, FE1199, VAL22-2 and MPM07 were determined following intraperitoneal administration (IP) in female SCID mice.
• SCID (Severe Combined ImmunoDeficiency) mice female total 144 • 25 mM in DMSO (dimethylsulfoxyde) of each test drug • Saline solution (0.9%)
Test drugs were dissolved in saline solution at 20 mg/ml. All dosing solutions were controlled by HPLC (High-Performance Liquid Chromatography) analysis. Mouse weight is estimated around 20 g.
Three mice per time point were used in each group.
Blood samples were collected on citrate at 10 min, 30 min, 1 h, 2 h, 4 h, 6 h, 8 h and 24 hours after drug administration. Following centrifugation, resulting plasma was stored at […] pending bioanalysis. Samples were analyzed by LC-MS/MS (Liquid chromatography tandem-mass spectrometry); the lower limit of quantification achieved was between 3 and 12 nM depending on drug. Non compartmental pharmacokinetic analysis was performed on plasma concentration data.

| Structure (SMILES) | IC50 [1] | further results |
| --- | --- | --- |
| N#C/N=C(\NC/C=C/CCC1CCN(C(=O)c2ccccc2)CC1)Nc1ccncc1 [FEI-198, (E)-1-((E)-5-(1-Benzoylpiperidin-4-yl)pent-2-en-1-yl)-2-cyano-3-(pyridin-4-yl)guanidine] | 5 nM | – |
| COc1cccc(OC)c1C(=O)N1CCC(CCCCNC(=O)/C=C/c2cccnc2F)CC1 [MPM-08] | 6 nM | – |
| N#C/N=C(\NC/C=C/CCC1CCN(C(=O)c2ccco2)CC1)Nc1ccncc1 [FEI-199, (E)-2-Cyano-1-((E)-5-(1-(furan-2-carbonyl)piperidin-4-yl)pent-2-en-1-yl)-3-(pyridin-4-yl)guanidine] | 2.6 nM | CL [2]: 38.3 mL/h; Percentage of extrapolated AUC from T6 h to infinity [2]: 0.5%; T1/2α [2]: 18.6 min; T1/2β [2]: 10.11 h; half-lives in the second phase (6 h→24 h) compared with FK866 [2]: improved and longer half-lives; Cmax [2]: 12100 ng/mL; Tmax [2]: 10 min; AUC(0-inf) [2]: 5230 ng·h/mL; AUC(0-t) [2]: 5200 ng·h/mL |
| N#C/N=C(\NC/C=C/CCC1CCN(C(=O)c2ccccc2)CC1)Nc1cccnc1 [FEI-194, (E)-1-((E)-5-(1-Benzoylpiperidin-4-yl)pent-2-en-1-yl)-2-cyano-3-(pyridin-3-yl)guanidine] | 5 nM | – |
| O=C(/C=C/c1ccc(F)nc1F)NCCCCC1CCN(C(=O)c2cccs2)CC1 [PER-202] | 5 nM | – |
| N#C/N=C(\NCCCCC1CCN(C(=O)c2ccccc2)CC1)Nc1ccncc1 [FEI-154, (E)-1-(4-(1-Benzoylpiperidin-4-yl)butyl)-2-cyano-3-(pyridin-4-yl)guanidine] | 3.9 nM | – |
| N#C/N=C(\NCCCCCC1CCN(C(=O)c2ccco2)CC1)Nc1ccncc1 [FEI-191, (E)-2-Cyano-1-(5-(1-(furan-2-carbonyl)piperidin-4-yl)pentyl)-3-(pyridin-4-yl)guanidine] | 1.9 nM | – |
| N#C/N=C(\NCCCCCC1CCN(C(=O)c2cccs2)CC1)Nc1ccncc1 [FEI-192, (E)-2-Cyano-1-(pyridin-4-yl)-3-(5-(1-(thiophene-2-carbonyl)piperidin-4-yl)pentyl)guanidine] | 2.3 nM | – |
| O=C(/C=C/c1cccnc1F)NCCCCC1CCN(C(=O)c2ccccc2)CC1 [VAL22-2, (E)-N-(4-(1-benzoylpiperidin-4-yl)butyl)-3-(2-fluoropyridin-3-yl)acrylamide] | – | CL [2]: 23.6 mL/h; Percentage of extrapolated AUC from T6 h to infinity [2]: 1.4%; T1/2α [2]: 27.6 min; T1/2β [2]: 8.58 h; half-lives in the second phase (6 h→24 h) compared with FK866 [2]: improved and longer half-lives; Cmax [2]: 16900 ng/mL; Tmax [2]: 10 min; AUC(0-inf) [2]: 8470 ng·h/mL; AUC(0-t) [2]: 8400 ng·h/mL |
| N#C/N=C(\NCCCCC1CCN(C(=O)c2ccco2)CC1)Nc1ccc(F)nc1 [FEI-170, (E)-2-Cyano-1-(6-fluoropyridin-3-yl)-3-(4-(1-(furan-2-carbonyl)piperidin-4-yl)butyl)guanidine] | 18 nM | – |
| N#C/N=C(\NCCCCC1CCN(C(=O)c2cccs2)CC1)Nc1ccc(F)nc1 [FEI-171, (E)-2-Cyano-1-(6-fluoropyridin-3-yl)-3-(4-(1-(thiophene-2-carbonyl)piperidin-4-yl)butyl)guanidine] | 12 nM | – |
| N#C/N=C(\NC/C=C/CCC1CCN(C(=O)c2cccs2)CC1)Nc1ccncc1 [FEI-200, (E)-2-Cyano-1-(pyridin-4-yl)-3-((E)-5-(1-(thiophene-2-carbonyl)piperidin-4-yl)pent-2-en-1-yl)guanidine] | 2.4 nM | – |
| COc1cc(OC)c(C(=O)N2CCC(C/C=C/CNC(=O)/C=C/c3cccnc3)CC2)c(OC)c1 [FEI-82, (E)-3-(Pyridin-3-yl)-N-((E)-4-(1-(2,4,6-trimethoxybenzoyl)piperidin-4-yl)but-2-en-1-yl)acrylamide] | 0.4 nM | – |
| O=C(/C=C/c1cccnc1)NC/C=C/CC1CCN(C(=O)c2ccco2)CC1 [FEI-83, (E)-N-((E)-4-(1-(Furan-2-carbonyl)piperidin-4-yl)but-2-en-1-yl)-3-(pyridin-3-yl)acrylamide] | 15 nM | – |
| COc1cc(C=O)cc(OC)c1C(=O)N1CCC(CCCCNC(=O)/C=C/c2cccnc2F)CC1 [MPM-13] | 15.5 nM | – |
| COc1cccc(OC)c1C(=O)N1CCC(CCCCCN/C(=N\C#N)Nc2ccncc2)CC1 [FEI-193, (E)-2-Cyano-1-(5-(1-(2,6-dimethoxybenzoyl)piperidin-4-yl)pentyl)-3-(pyridin-4-yl)guanidine] | 4.8 nM | – |
| O=C(/C=C/c1cccnc1)NC/C=C/CC1CCN(C(=O)c2cccs2)CC1 [FEI-85, (E)-3-(Pyridin-3-yl)-N-((E)-4-(1-(thiophene-2-carbonyl)piperidin-4-yl)but-2-en-1-yl)acrylamide] | 2 nM | – |

| Structure (SMILES) | IC50 [1] | further results |
| --- | --- | --- |
| O=C(/C=C/c1cccnc1)NC/C=C/CC1CCN(C(=O)c2ccccc2)CC1 [FEI-80, (E)-N-((E)-4-(1-Benzoylpiperidin-4-yl)but-2-en-1-yl)-3-(pyridin-3-yl)acrylamide] | 9 nM | – |
| COc1cccc(OC)c1C(=O)N1CCC(CCCCNC(=O)/C=C/c2ccc(F)nc2F)CC1 [MPM-09] | 2 nM | – |
| CCCn1cc(C=O)c(C(=O)N2CCC(CCCCNC(=O)/C=C/c3cccnc3F)CC2)c1C [MPM-14, (E)-3-(2-fluoropyridin-3-yl)-N-(4-(1-(4-formyl-2-methyl-1-propyl-1H-pyrrole-3-carbonyl)piperidin-4-yl)butyl)acrylamide] | 7.54 nM | – |
| N#C/N=C(\NCCCCCC1CCN(C(=O)c2ccccc2)CC1)Nc1ccncc1 [FEI-190, (E)-1-(5-(1-Benzoylpiperidin-4-yl)pentyl)-2-cyano-3-(pyridin-4-yl)guanidine] | 2.6 nM | – |
| N#C/N=C(\NC/C=C/CCC1CCN(C(=O)c2cccs2)CC1)Nc1cccnc1 [FEI-196, (E)-2-Cyano-1-(pyridin-3-yl)-3-((E)-5-(1-(thiophene-2-carbonyl)piperidin-4-yl)pent-2-en-1-yl)guanidine] | 5.9 nM | – |
| COc1cc(OC)c(C(=O)N2CCC(CCCCNC(=O)/C=C/c3cccnc3)CC2)c(OC)c1 [FEI-62, (E)-3-(Pyridin-3-yl)-N-(4-(1-(2,4,6-trimethoxybenzoyl)piperidin-4-yl)butyl)acrylamide] | 1 nM | – |
| COc1ccoc1C(=O)N1CCC(CCCCNC(=O)/C=C/c2cccnc2)CC1 [FEI-71, (E)-N-(4-(1-(3-Methoxyfuran-2-carbonyl)piperidin-4-yl)butyl)-3-(pyridin-3-yl)acrylamide] | 7 nM | – |
| O=C(/C=C/c1cccnc1)NCCCCC1CCN(C(=O)c2ccno2)CC1 [FEI-74, (E)-N-(4-(1-(Isoxazole-5-carbonyl)piperidin-4-yl)butyl)-3-(pyridin-3-yl)acrylamide] | 5 nM | – |
| N#C/N=C(\NCCCCC1CCN(C(=O)c2ccco2)CC1)Nc1ccncc1 [FEI-158, (E)-2-Cyano-1-(4-(1-(furan-2-carbonyl)piperidin-4-yl)butyl)-3-(pyridin-4-yl)guanidine] | 6.8 nM | – |
| COc1ccc(C(=O)N2CCC(CCCCNC(=O)/C=C/c3cccnc3)CC2)c(OC)c1 [FEI-56, (E)-N-(4-(1-(2,4-Dimethoxybenzoyl)piperidin-4-yl)butyl)-3-(pyridin-3-yl)acrylamide] | 3 nM | – |
| COc1cccc(OC)c1C(=O)N1CCC(CCCCNC(=O)Nc2ccncc2)CC1 [FEI-209, 1-(4-(1-(2,6-Dimethoxybenzoyl)piperidin-4-yl)butyl)-3-(pyridin-4-yl)urea] | 8.2 nM | – |
| COc1cc(C=O)cc(OC)c1C(=O)N1CCC(CCCCNC(=O)/C=C/c2cccnc2)CC1 [FEI-75, (E)-N-(4-(1-(4-Formyl-2,6-dimethoxybenzoyl)piperidin-4-yl)butyl)-3-(pyridin-3-yl)acrylamide] | 2 nM | – |
| COc1cccc(OC)c1C(=O)N1CCC(CCCCNC(=O)/C=C/c2cccnc2)CC1 [FEI-58, (E)-N-(4-(1-(2,6-Dimethoxybenzoyl)piperidin-4-yl)butyl)-3-(pyridin-3-yl)acrylamide] | 0.6 nM | – |
| O=C(/C=C/c1ccc(F)nc1F)NCCCCC1CCN(C(=O)c2ccccc2)CC1 [PER-201, (E)-N-(4-(1-benzoylpiperidin-4-yl)butyl)-3-(2,6-difluoropyridin-3-yl)acrylamide] | 14 nM | – |
| N#C/N=C(\NC/C=C/CCC1CCN(C(=O)c2ccco2)CC1)Nc1cccnc1 [FEI-195, (E)-2-Cyano-1-((E)-5-(1-(furan-2-carbonyl)piperidin-4-yl)pent-2-en-1-yl)-3-(pyridin-3-yl)guanidine] | 4.6 nM | – |
| COc1cccc(OC)c1C(=O)N1CCC(C/C=C/CNC(=O)/C=C/c2cccnc2)CC1 [FEI-81, (E)-N-((E)-4-(1-(2,6-Dimethoxybenzoyl)piperidin-4-yl)but-2-en-1-yl)-3-(pyridin-3-yl)acrylamide] | 2.3 nM | – |
